Measurements reported in US4764603A, “Stable salts of S-adenosyl-L-methionine with polyanions” (priority 1985, dated 1988).
Counter-ions that a name gives are not always drawn. Values belong to the compound of their own block, whether it stands above or below them.

Legend:
[1] = physchem; format: physicochemical
Protocol: The salts of the present invention are particularly stable even at substantially higher temperatures than the room temperature: an analysis of their thermal stability versus time has, in fact, shown an unlimited stability of these compounds, when maintained in solid phase at 45° C. However, at 75° C., differentiated behaviors of the various salts prepared are observed with respect to one another.

[2] = Description: The liquors are removed by simple decantation and the precipitate is washed twice with 10 l of distilled H2 O while keeping the system under strong stirring.
[3] = Hygroscopicity of the lyophilized or dried solid; format: physicochemical
[4] = format: physicochemical
[5] = system: transmethylation reactions; conditions: cited from earlier work
[6] = system: cholestasis; conditions: in vivo; cited from earlier work
[7] = system: H ribonuclease; conditions: cited from earlier work
[8] = system: ethanolamianephosphate cytidyltransferase; conditions: cited from earlier work
[9] = system: methylene tetrahydrofolic reductase; conditions: cited from earlier work
[10] = system: osteoarthritis, Parkinson's disease, disorder of sleep, depression, atherosclerosis; conditions: cited from earlier work
[11] = system: edema; conditions: carrageenin and white-of-egg acute edema; adjuvant arthritis; cited from earlier work
[12] = system: steatosis; conditions: diet; alcohol, carbon tetrachloride, bromobenzene; cited from earlier work
[13] = system: pain from myotasis; conditions: in vivo; cited from earlier work

stability of the salt at 45° C. [1]: unlimited
thermal stability at 75° C. versus SAM chloride and the double salt SAM^+.HSO4^-.H2 SO4.2CH3 C6 H4 SO3 H [1]: higher stability
SMILES: C[S+](CC[C@H](N)C(=O)O)C[C@H]1O[C@@H](n2cnc3c(N)ncnc32)[C@H](O)[C@@H]1O (stereo partly drawn) [Example 1, salt of SAM with the polyparastyrene sulfonate]

solubilisation time / rate at pH >4 relative to Example 1 [2]: increase in solubilisation times
hygroscopicity [3]: nonhygroscopic
SMILES: C[S+](CC[C@H](N)C(=O)O)C[C@H]1O[C@@H](n2cnc3c(N)ncnc32)[C@H](O)[C@@H]1O (stereo partly drawn) [Example 2]

thermal stability at 75° C. versus SAM chloride and the double salt SAM^+.HSO4^-.H2 SO4.2CH3 C6 H4 SO3 H [1]: higher stability
solubilisation time / rate at pH >4 relative to Example 1 [2]: slower rate of solubilization
hygroscopicity [3]: nonhygroscopic
SMILES: C[S+](CC[C@H](N)C(=O)O)C[C@H]1O[C@@H](n2cnc3c(N)ncnc32)[C@H](O)[C@@H]1O (stereo partly drawn) [Example 3]

half-life time at 75° C. [1]: more than one
stability of the salt at 45° C. [1]: unlimited
thermal stability at 75° C. versus SAM chloride and the double salt SAM^+.HSO4^-.H2 SO4.2CH3 C6 H4 SO3 H [1]: higher stability
solubilization at pH >4 [2]: solubilizes rapidly
residual acidity [4]: negligible
hygroscopicity [3]: nonhygroscopic
SMILES: C[S+](CC[C@H](N)C(=O)O)C[C@H]1O[C@@H](n2cnc3c(N)ncnc32)[C@H](O)[C@@H]1O (stereo partly drawn) [Example 4]

stability of the salt at 45° C. [1]: unlimited
thermal stability at 75° C. versus SAM chloride and the double salt SAM^+.HSO4^-.H2 SO4.2CH3 C6 H4 SO3 H [1]: higher stability
half-life ([1]; solid phase, half-life time at 75° C.): > 240 h
solubilization at pH 7 ([2]; pH 7): rapidly solubilized
residual acidity [4]: negligible
hygroscopicity [3]: nonhygroscopic
SMILES: C[S+](CC[C@H](N)C(=O)O)C[C@H]1O[C@@H](n2cnc3c(N)ncnc32)[C@H](O)[C@@H]1O (stereo partly drawn) [Example 5]

thermal stability at 75° C. versus SAM chloride and the double salt SAM^+.HSO4^-.H2 SO4.2CH3 C6 H4 SO3 H [1]: higher stability
SMILES: C[S+](CC[C@H](N)C(=O)O)C[C@H]1O[C@@H](n2cnc3c(N)ncnc32)[C@H](O)[C@@H]1O (stereo partly drawn) [Example 7]

stability of the salt at 45° C. [1]: unlimited
thermal stability at 75° C. versus SAM chloride and the double salt SAM^+.HSO4^-.H2 SO4.2CH3 C6 H4 SO3 H [1]: higher stability
solubilization at pH 6 ([2]; pH 6): solubilizes rapidly
residual acidity [4]: negligible
hygroscopicity [3]: nonhygroscopic
SMILES: C[S+](CC[C@H](N)C(=O)O)C[C@H]1O[C@@H](n2cnc3c(N)ncnc32)[C@H](O)[C@@H]1O (stereo partly drawn) [Example 9]

SMILES: Nc1ncnc2c1ncn2[C@@H]1O[C@H](CSCC[C@H](N)C(=O)O)[C@@H](O)[C@H]1O [SAH, S-adenosyl-homocysteine]
inhibition of transmethylation reactions [5]: powerful inhibitor

SMILES: C[S@@+](CC[C@H](N)C(=O)O)C[C@H]1O[C@@H](n2cnc3c(N)ncnc32)[C@H](O)[C@@H]1O [SAM, 5'-[[(3S)-3-amino-3-carboxy-propyl]methyl-(S)-sulfone]-5'-deoxyadenosine]
bile fluidifying effect [6]: BILE FLUIDIFYING
inhibition of H ribonuclease [7]: inhibitor
inactivation of H ribonuclease ([7]; from calf thymus gland): irreversible inactivation
inhibition of ethanolaminephosphate cytidyltransferase [8]: inhibitor
inhibition of methylene tetrahydrofolic reductase [9]: inhibitor
clinical effect: akinesia and rigidity ([10]; Parkinson's disease): IMPROVES AKINESIA
effect on the action of levodopa ([10]; Parkinson's disease): ENHANCING
clinical effect: psycho-affective sphere ([10]; atherosclerosis): IMPROVES
effect on sleep ([10]; disorder of sleep mechanism or of waking-sleeping rhythm): SLEEP INDUCING
antidepressant effect ([10]; in vivo): ANTIDEPRESSANT
clinical effect: (depressive) symptomatology ([10]; in vivo): REDUCES OR RESOLVES
clinical effect: muscular spasms ([10]; osteoarthritis): improves
anti-inflammatory effect [11]: ANTI-INFLAMMATORY
hepatoprotective effect [12]: HEPATOPROTECTIVE
analgesic effect [13]: ANALGESIC

SMILES: C[S+](CCCN)C[C@H]1O[C@@H](n2cnc3c(N)ncnc32)[C@H](O)[C@@H]1O (stereo partly drawn) [deca-SAM, S-adenosyl-(5')-3-methylthiopropylamine]
inhibition of transmethylation reactions [5]: inhibitor
